Patent US20240391862A1, “(1,4,5-TRISUBSTITUTED-1H-PYRAZOL-3-YL)OXY-2-ALKOXY ALKYL ACIDS AND THEIR DERIVATIVES, THEIR SALTS AND THEIR USE AS HERBICIDAL AGENTS” (Bayer AKtiengesellschaft, priority 2021, published 2024)

Legend:
DIGSA = test: Post-emergence herbicidal effect, greenhouse pot test; format: in vivo, Digitaria sanguinalis; settings: Digitaria sanguinalis, 504 h, visual rating about 3 weeks after treatment, read-out: Post-emergence effect against DIGSA
How it was run: (§1)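 Greenhouse pot test: weeds and crops sown in sandy loam, sprayed post-emergence at one-leaf stage (2–3 weeks after sowing) with WP or EC formulations plus 0.5% additive at 600 l/ha water, rates 20–320 g/ha. Visual rating about 3 weeks later versus untreated controls (100% = dead, 0% = as control).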

SETVI = test: as above; format: in vivo, Setaria viridis; settings: Setaria viridis, 504 h, 320 g/ha, read-out: Post-emergence effect against SETVI in %
How it was run: as §1

VIOTR = test: as above; format: in vivo, Viola tricolor; settings: Viola tricolor, 504 h, read-out: Post-emergence effect against VIOTR in %
How it was run: as §1

ZEAMX = test: Post-emergence herbicidal effect and crop plant compatibility, greenhouse pot test; format: in vivo, Zea mays; settings: one-leaf stage, rated visually after about 3 weeks vs untreated controls; for plant injury at 20 g/ha / plant injury at 80 g/ha: Zea mays, 504 h; for plant injury at 20 g/ha: read-out: Post-emergence effect at 20 g/ha against ZEAMX in %; for plant injury at 80 g/ha: read-out: Post-emergence effect at 80 g/ha against ZEAMX in %
How it was run: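 Sandy loam pots, greenhouse. One-leaf stage (2–3 wk after sowing) foliar spray; WP/EC in water + 0.5% additive, 600 l/ha; 20–320 g/ha. Visual score ~3 wk, 0–100% vs untreated.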

KCHSC = test: Post-emergence herbicidal effect, greenhouse pot test; format: in vivo; settings: for pest or weed control at 80 g/ha / pest or weed control at 320 g/ha: 504 h, read-out: Post-emergence effect against KCHSC in %
How it was run: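 Greenhouse plants in sandy loam, sprayed post-emergence at the one-leaf stage (2–3 weeks after sowing) with WP or EC formulations in water plus 0.5% additive at 600 l/ha. Rates 20 to 320 g/ha. Activity rated visually after about 3 weeks against untreated controls (0% like control, 100% dead).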

PHBPU = test: as above; format: in vivo, Ipomoea purpurea; settings: Ipomoea purpurea, 504 h, read-out: Post-emergence effect against PHBPU in %
How it was run: as §1

MATIN = test: as above; format: in vivo, Tripleurospermum inodorum; settings: Tripleurospermum inodorum, 504 h, 320 g/ha, read-out: Post-emergence effect against MATIN in %
How it was run: as §1

POLCO = test: as above; format: in vivo, Fallopia convolvulus; settings: Fallopia convolvulus, 504 h, read-out: Post-emergence effect against POLCO in %
How it was run: as §1

AMARE = test: as above; format: in vivo, Amaranthus retroflexus; settings: Amaranthus retroflexus, 504 h, 320 g/ha, visual rating about 3 weeks after treatment, read-out: Post-emergence effect against AMARE
How it was run: as §1

AVEFA = test: as above; format: in vivo, Avena fatua; settings: Avena fatua, 504 h, visual rating about 3 weeks after treatment, read-out: Post-emergence effect against AVEFA
How it was run: as §1

ALOMY = test: as above; format: in vivo, Alopecurus myosuroides; settings: Alopecurus myosuroides, 504 h, 320 g/ha, visual rating about 3 weeks after treatment, read-out: Post-emergence effect against ALOMY
How it was run: as §1

VERPE = test: as above; format: in vivo, Veronica persica; settings: Veronica persica, 504 h, 320 g/ha, read-out: Post-emergence effect against VERPE in %
How it was run: as §1

LOLRI = test: as above; format: in vivo, Lolium rigidum; settings: Lolium rigidum, 504 h, read-out: Post-emergence effect against LOLRI in %
How it was run: as §1

ABUTH = test: as above; format: in vivo, Abutilon theophrasti; settings: Abutilon theophrasti, 504 h, visual rating about 3 weeks after treatment, read-out: Post-emergence effect against ABUTH
How it was run: as §1

ECHCG = test: as above; format: in vivo, Echinochloa crus-galli; settings: Echinochloa crus-galli, 504 h, read-out: Post-emergence effect against ECHCG in %
How it was run: as §1

Row | SMILES | pest or weed control at 80 g/ha (DIGSA) [%] | pest or weed control at 320 g/ha (DIGSA) [%] | pest or weed control at 320 g/ha (SETVI) [%] | pest or weed control at 80 g/ha (VIOTR) [%] | pest or weed control at 320 g/ha (VIOTR) [%] | plant injury at 20 g/ha (ZEAMX) [%] | pest or weed control at 80 g/ha (PHBPU) [%] | pest or weed control at 320 g/ha (PHBPU) [%] | pest or weed control at 320 g/ha (MATIN) [%] | pest or weed control at 80 g/ha (POLCO) [%] | pest or weed control at 320 g/ha (POLCO) [%] | pest or weed control at 320 g/ha (AMARE) [%] | pest or weed control at 80 g/ha (AVEFA) [%] | pest or weed control at 320 g/ha (AVEFA) [%] | pest or weed control at 320 g/ha (ALOMY) [%] | pest or weed control at 320 g/ha (VERPE) [%] | pest or weed control at 320 g/ha (LOLRI) [%] | pest or weed control at 80 g/ha (ABUTH) [%] | pest or weed control at 320 g/ha (ABUTH) [%] | pest or weed control at 320 g/ha (ECHCG) [%] | further results
1 | CCOC(=O)C(OC)Oc1nn(-c2ncccc2F)c(-c2ccc(F)nc2)c1Br (stereo not drawn) [Example I-14] | 80 | 90 | 90 | 90 | 90 | 0 | 80 | 90 | 90 | 80 | 80 | 80 | 90 | 90 | 90 | 90 | 90 | 90 | 90 | 90 | pest or weed control at 80 g/ha (KCHSC; 80 g/ha): 90%; pest or weed control at 320 g/ha (KCHSC; 320 g/ha): 90%; pest or weed control at 80 g/ha (LOLRI): 90%; pest or weed control at 80 g/ha (ECHCG): 90%
2 | COC(=O)C(OC)Oc1nn(-c2ncccc2F)c(-c2ccc(F)nc2)c1C1CC1 (stereo not drawn) [Example I-40] | – | 90 | 90 | 90 | 90 | 0 | 90 | 90 | 80 | 90 | 90 | 80 | 80 | 90 | 90 | 90 | 90 | 90 | 90 | 90 | Post-emergence effect at 320 g/ha against ZEAMX in % (ZEAMX; 320 g/ha): 0%; plant injury at 80 g/ha (ZEAMX): 0%; Post-emergence effect against KCHSC in % (KCHSC; 80 g/ha): 90%; Post-emergence effect against KCHSC in % (KCHSC; 320 g/ha): 90%; pest or weed control at 80 g/ha (LOLRI): 90%; pest or weed control at 80 g/ha (ECHCG): 90%
3 | COC(=O)C(OC)Oc1nn(-c2ncccc2F)c(-c2ccc(F)nc2)c1C(F)(F)F (stereo not drawn) [Example I-41, Methyl {[1-(3-fluoropyridin-2-yl)-5-(6-fluoropyridin-3-yl)-4-(trifluoromethyl)-1H-pyrazol-3-yl]oxy}(methoxy)acetate] | 80 | 90 | 90 | 80 | 90 | 0 | 90 | 90 | 80 | 90 | 90 | 90 | 80 | 90 | 90 | 90 | 90 | 90 | 90 | 90 | plant injury at 80 g/ha (ZEAMX): 0%; pest or weed control at 80 g/ha (KCHSC; 80 g/ha): 80%; pest or weed control at 320 g/ha (KCHSC; 320 g/ha): 90%
